biological target: rhSYK (Homo sapiens (Human), UniProt P43405); conditions: read-out: rhSYK activity

SMILES | IC50
Cc1cc(Nc2nccc(C(F)(F)F)n2)cc(-c2cnc(C3(C(N)=O)CCC(N)CC3)s2)c1 (stereo not drawn) [molecule A, cis-4-amino-1-[5-(3-methyl-5-{[4-(trifluoromethyl)pyrimidin-2-yl]amino}phenyl)-1,3-thiazol-2-yl]cyclohexanecarboxamide] | < 100 nM

biological target: recombinant human SYK (GST-hSYK fusion protein) (Homo sapiens (Human), UniProt P43405); conditions: read-out: rhSYK Activity; Table 15
Excerpt: Homogeneous Time-Resolved Fluorescence (HTRF) Assay for the Recombinant Human SYK Enzyme:

SMILES | IC50
OC(c1ncc(-c2cccc(Nc3nccc(C(F)(F)F)n3)c2)s1)(C1CC1)C1CC1 [Example 15-1] | < 100 nM
CC(O)(c1ncc(-c2cccc(Nc3nccc(C(F)(F)F)n3)c2)s1)C1CC1 (stereo not shown) [Example 15-3] | < 100 nM

same assay, conditions: read-out: rhSYK Activity; Table 21

SMILES | IC50
O=C(NC1CC1)C1CCC(c2ncc(-c3cccc(Nc4nccc(C(F)(F)F)n4)c3)s2)CC1 (stereo not shown) [Example 21-13] | < 100 nM
FC(F)(F)c1ccnc(Nc2cccc(-c3cnc(CCN4CCCC4=S)s3)c2)n1 [Example 21-16] | < 100 nM

same assay, conditions: read-out: rhSYK Activity; Table 24

SMILES | IC50
CC1(c2ncc(-c3cc(Nc4nccc(C(F)(F)F)n4)cc(N4CCOCC4)c3)s2)OCCO1 [Example 24-2] | < 100 nM

same assay, conditions: read-out: rhSYK Activity; Table 26

SMILES | IC50
O=C(O)C1CCC(F)(c2ncc(-c3cccc(Nc4nccc(C(F)(F)F)n4)c3)s2)CC1 (stereo not shown) [Example 25-6] | < 100 nM
Cc1cc(Nc2nccc(C(F)(F)F)n2)cc(-c2cnc(C3(F)CCC(C(=O)O)CC3)s2)c1 (stereo not shown) [Example 26-1] | < 100 nM
FC(F)(F)c1ccnc(Nc2cc(-c3cnc(C4(F)CCC4)s3)cc(N3CCOCC3)c2)n1 [Example 26-2] | 100 to 1000 nM
CCOC(=O)C1CCC(F)(c2ncc(-c3cccc(Nc4nccc(C(F)(F)F)n4)c3)s2)CC1 (stereo not shown) [Example 26-4] | 100 to 1000 nM

same assay, conditions: read-out: rhSYK Activity; Table 33-A

SMILES | IC50
Cc1cc(Nc2ncc(F)c(C3CC3)n2)cc(-c2cnc(C3(O)CCC(C(=O)O)CC3)s2)c1 (stereo not shown) [33A-1] | < 100 nM
Cc1cc(Nc2ncc(F)c(C3CC3)n2)cc(-c2cnc(C3(O)CCC(C(=O)O)CC3)s2)c1 (stereo not shown) [33A-2] | < 100 nM
CCOC(=O)C1CCC(O)(c2ncc(-c3cc(C)cc(Nc4nccc(C(F)(F)F)n4)c3)s2)CC1 (stereo not shown) [33A-5] | < 100 nM
CCOC(=O)C1CCC(O)(c2ncc(-c3cc(C)cc(Nc4nccc(C(F)(F)F)n4)c3)s2)CC1 (stereo not shown) [33A-7] | < 100 nM
CCOC(=O)C1(C)CCC(O)(c2ncc(-c3cc(C)cc(Nc4nccc(C(F)(F)F)n4)c3)s2)CC1 (stereo not shown) [33A-10] | < 100 nM
Cc1cc(Nc2nccc(C(F)(F)F)n2)cc(-c2cnc(C3(O)CCC(c4ccc(C(=O)O)cc4)CC3)s2)c1 (stereo not shown) [33A-17] | < 100 nM
Cc1cc(Nc2ncc(F)c(C)n2)cc(-c2cnc(C3(O)CCC(C(=O)O)C(C)(C)C3C)s2)c1 (stereo not shown) [33A-74] | < 100 nM

same assay, conditions: read-out: rhSYK Activity; Table 33B

SMILES | IC50
Cc1cc(Nc2nccc(C(F)(F)F)n2)cc(-c2cnc(C3(O)CC(C(=O)O)C(C)(C)C3)s2)c1 (single isomer, unassigned) [Example 33B-4] | < 100 nM
Cc1cc(Nc2nccc(C(F)(F)F)n2)cc(-c2cnc(C3(O)CC(C(=O)O)C(C)(C)C3)s2)c1 (single isomer, unassigned) [Example 33B-5] | < 100 nM
Cc1cc(Nc2nccc(C(F)(F)F)n2)cc(-c2cnc(C3(O)CC(C(=O)O)C(C)(C)C3)s2)c1 (single isomer, unassigned) [Example 33B-6] | < 100 nM
Cc1cc(Nc2nccc(C(F)(F)F)n2)cc(-c2cnc(C3(O)CC(C(=O)O)C(C)(C)C3)s2)c1 (single isomer, unassigned) [Example 33B-7] | < 100 nM
Cc1cc(Nc2nccc(C(F)(F)F)n2)cc(-c2cnc(C3(O)CCCC(c4ccc(C(=O)O)cc4)C3)s2)c1 (single isomer, unassigned) [Example 33B-15] | < 100 nM
Cc1cc(Nc2nccc(C(F)(F)F)n2)cc(-c2cnc(C3(O)CCCC(c4ccc(C(=O)O)cc4)C3)s2)c1 (single isomer, unassigned) [Example 33B-16] | < 100 nM
Cc1cc(Nc2nccc(C(F)(F)F)n2)cc(-c2cnc(C3(O)CCC(C(=O)O)C(C(C)C)C3)s2)c1 (single isomer, unassigned) [Example 33B-22] | < 100 nM
Cc1cc(Nc2nccc(C(F)(F)F)n2)cc(-c2cnc(C3(O)CCC(C(=O)O)C(C(C)C)C3)s2)c1 (single isomer, unassigned) [Example 33B-23] | < 100 nM
Cc1cc(Nc2nccc(C)n2)cc(-c2cnc(C3(O)CCC(C(=O)O)C(C)C3)s2)c1 (single isomer, unassigned) [Example 33B-33] | < 100 nM
Cc1cc(Nc2nccc(C(F)(F)F)n2)cc(-c2cnc(C3(O)CCC(C(=O)O)C(C)C3C)s2)c1 (single isomer, unassigned) [Example 33B-38] | < 100 nM
Cc1cc(Nc2nccc(C(F)(F)F)n2)cc(-c2cnc(C3(O)CCC(C(=O)O)C(C)C3C)s2)c1 (single isomer, unassigned) [Example 33B-39] | < 100 nM
CCC1C(C)C(C(=O)O)CCC1(O)c1ncc(-c2cc(C)cc(Nc3nccc(C(F)(F)F)n3)c2)s1 (single isomer, unassigned) [Example 33B-41] | < 100 nM
CCC1C(C)C(C(=O)O)CCC1(O)c1ncc(-c2cc(C)cc(Nc3nccc(C(F)(F)F)n3)c2)s1 (single isomer, unassigned) [Example 33B-42] | < 100 nM

same assay, conditions: read-out: rhSYK Activity; Table 113C

SMILES | IC50
Cc1cc(Nc2nccc(C(C)F)n2)cc(-c2cnc(C3(O)CCNC(=O)CC3)s2)c1 (single isomer, unassigned) [113C-3] | < 100 nM
Cc1cc(Nc2nccc(C(C)F)n2)cc(-c2cnc(C3(O)CCNC(=O)CC3)s2)c1 (single isomer, unassigned) [113C-4] | < 100 nM
COc1nc(Nc2cc(C)cc(-c3cnc(C4(O)CCCNCC4)s3)c2)ncc1Cl (single isomer, unassigned) [113C-15] | < 100 nM
COc1nc(Nc2cc(C)cc(-c3cnc(C4(O)CCCNCC4)s3)c2)ncc1Cl (single isomer, unassigned) [113C-16] | < 100 nM
Cc1cc(Nc2nccc(C3CC3)n2)cc(-c2cnc(C3(O)CCCN(C(=O)OC(C)(C)C)CC3)s2)c1 (single isomer, unassigned) [113C-17] | < 100 nM
Cc1cc(Nc2nccc(C3CC3)n2)cc(-c2cnc(C3(O)CCCN(C(=O)OC(C)(C)C)CC3)s2)c1 (single isomer, unassigned) [113C-18] | 100 to 1000 nM
Cc1cc(Nc2nccc(C(C)C)n2)cc(-c2cnc(C3(O)CCCN(C(=O)OC(C)(C)C)CC3)s2)c1 (single isomer, unassigned) [113C-20] | 100 to 1000 nM
Cc1cc(Nc2nccc(C(C)C)n2)cc(-c2cnc(C3(O)CCCN(C(=O)OC(C)(C)C)CC3)s2)c1 (single isomer, unassigned) [113C-21] | 1000 to 10000 nM
Cc1cc(Nc2ncc(F)c(C)n2)cc(-c2cnc(C3(O)CCNC(=O)CC3)s2)c1 (stereo not shown) [113C-1] | < 100 nM
Cc1cc(Nc2nccc(C3CC3)n2)cc(-c2cnc(C3(O)CCNC(=O)CC3)s2)c1 (stereo not shown) [113C-2] | < 100 nM
Cc1cc(Nc2ncc(Cl)c(C)n2)cc(-c2cnc(C3(O)CCNC(=O)CC3)s2)c1 (stereo not shown) [113C-5] | < 100 nM
COc1nc(Nc2cc(C)cc(-c3cnc(C4(O)CCNC(=O)CC4)s3)c2)ncc1F (stereo not shown) [113C-6] | < 100 nM
Cc1cc(Nc2nccc(C(F)F)n2)cc(-c2cnc(C3(O)CCNC(=O)CC3)s2)c1 (stereo not shown) [113C-7] | < 100 nM
O=C1CCC(O)(c2ncc(-c3cccc(Nc4nccc(C(F)(F)F)n4)c3)s2)CCN1 (stereo not shown) [113C-8] | < 100 nM
Cc1cc(Nc2nccc(C(C)(C)C)n2)cc(-c2cnc(C3(O)CCNC(=O)CC3)s2)c1 (stereo not shown) [113C-9] | < 100 nM
Cc1cc(Nc2nccc(OC(C)C)n2)cc(-c2cnc(C3(O)CCNC(=O)CC3)s2)c1 (stereo not shown) [113C-10] | < 100 nM
COc1nc(Nc2cc(C)cc(-c3cnc(C4(O)CCNC(=O)CC4)s3)c2)ncc1Cl (stereo not shown) [113C-11] | < 100 nM
Cc1cc(Nc2nccc(-c3cccs3)n2)cc(-c2cnc(C3(O)CCNC(=O)CC3)s2)c1 (stereo not shown) [113C-12] | < 100 nM
Cc1cc(Nc2nccc(C3CC3)n2)cc(-c2cnc(C3(O)CCCNCC3)s2)c1 (stereo not shown) [113C-13] | < 100 nM
Cc1cc(Nc2nccc(C(C)C)n2)cc(-c2cnc(C3(O)CCCN(C(=O)OC(C)(C)C)CC3)s2)c1 (stereo not shown) [113C-19] | < 100 nM

same assay, conditions: read-out: rhSYK Activity; Table 113D, lower part (Structure)

SMILES | IC50
Cc1cc(Nc2nccc(C(F)(F)F)n2)cc(-c2cnc(C3(O)CCC(C(=O)O)OC3)s2)c1 (single isomer, unassigned) [Example 113D-11] | < 100 nM
Cc1cc(Nc2nccc(C(F)(F)F)n2)cc(-c2cnc(C3(O)CCC(C(=O)O)OC3)s2)c1 (single isomer, unassigned) [Example 113D-12] | < 100 nM

same assay, conditions: read-out: rhSYK Activity; Table 116A

SMILES | IC50
COc1ccc(Cn2cc(-c3ccnc(Nc4cc(C)cc(-c5cnc(C6(O)CCC(C(=O)O)CC6)s5)c4)n3)nn2)cc1 (stereo not shown) [116A-17] | < 100 nM
Cc1cc(Nc2ncc(Cl)c(O)n2)cc(-c2cnc(C3(O)CCC(C(=O)O)C(C)(C)C3)s2)c1 (stereo not shown) [116A-29] | 100 to 1000 nM

same assay, conditions: read-out: rhSYK Activity; recombinant human SYK, HTRF assay; class symbols

SMILES | IC50
Cc1cc(Nc2nccc(C(F)(F)F)n2)cc(-c2cnc(C3(O)CCCN(C(=O)CCn4cncn4)CC3)s2)c1 (racemic) [Example 54D-89] | < 100 nM
Cc1cc(Nc2nccc(C(F)(F)F)n2)cc(-c2cnc(C3(O)CCCN(C(=O)c4ccc(O)c(F)c4)CC3)s2)c1 (racemic) [Example 54D-103] | < 100 nM
Cc1cc(Nc2nccc(C(F)(F)F)n2)cc(-c2cnc(C3(O)CCCN(CC(F)(F)F)CC3)s2)c1 (single isomer, unassigned) [Example 54A-85] | < 100 nM
Cc1cc(Nc2nccc(C(F)(F)F)n2)cc(-c2cnc(C3(O)CCCN(CC(F)(F)F)CC3)s2)c1 (single isomer, unassigned) [Example 54A-86] | < 100 nM
COc1nc(Nc2cc(C)cc(-c3cnc(C4(O)CCCN(C(=O)c5cnn[nH]5)CC4)s3)c2)ncc1Cl (single isomer, unassigned) [Example 54D-32] | < 100 nM
COc1nc(Nc2cc(C)cc(-c3cnc(C4(O)CCCN(C(=O)c5cnn[nH]5)CC4)s3)c2)ncc1Cl (single isomer, unassigned) [Example 54D-33] | < 100 nM

same assay, conditions: read-out: rhSYK activity

SMILES | IC50
Cc1cc(Nc2nccc(C(F)(F)F)n2)cc(-c2cnc(C3(O)CCC(NC(=O)[C@H](C)O)CC3)s2)c1 (stereo in doubt) [Example 54E-2] | < 100 nM

— US8759366B2, “Aminopyrimidines as SYK inhibitors” (Merck Sharp & Dohme Corp., priority 2009, dated 2014)
